In US8912216B2, “Hetaryl-[1,8]naphthyridine derivatives” (Merck Patent GmbH, priority 2010, dated 2014):

Columns and labels:
[1] = test system: TGF-beta-induced phosphorylation of Smad2 and Smad3 in Mv1-Lu cells; experiment: Inhibition of Smad2/3 phosphorylation in Mv1Lu cells (Example 35A); type: cell-based, mink Mustela vison; settings: Neogale vison, Mv1-Lu cells, TGF-beta 1 5 ng/ml, phospho-Smad2/3 ELISA, read-out: TβR activity (Example 35A)
Method in brief: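 Serum-starved (16-20 h) Mv1-Lu mink lung epithelial cells were pre-incubated 1.5 h with compound dilutions (0.2% DMSO), then stimulated 1 h with 5 ng/ml TGF-beta 1. Phospho-Smad2 (Ser465/467)/Smad3 (Ser423/425) in lysates was measured by ELISA. IC50 came from dose-response fits between stimulated and unstimulated controls.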

GST-ALK5 = target: T1, GST-ALK5 (Homo sapiens, UniProt P36897); experiment: In-vitro (enzyme) kinase assay, 384-well flashplate (Example 36); type: biochemical; settings: GST-ALK5, GST-SMAD2 substrate, 3 mM ATP, 30° C., 45 min; read-out: TβR activity (Example 36)
T1 sequence (P36897 34-503): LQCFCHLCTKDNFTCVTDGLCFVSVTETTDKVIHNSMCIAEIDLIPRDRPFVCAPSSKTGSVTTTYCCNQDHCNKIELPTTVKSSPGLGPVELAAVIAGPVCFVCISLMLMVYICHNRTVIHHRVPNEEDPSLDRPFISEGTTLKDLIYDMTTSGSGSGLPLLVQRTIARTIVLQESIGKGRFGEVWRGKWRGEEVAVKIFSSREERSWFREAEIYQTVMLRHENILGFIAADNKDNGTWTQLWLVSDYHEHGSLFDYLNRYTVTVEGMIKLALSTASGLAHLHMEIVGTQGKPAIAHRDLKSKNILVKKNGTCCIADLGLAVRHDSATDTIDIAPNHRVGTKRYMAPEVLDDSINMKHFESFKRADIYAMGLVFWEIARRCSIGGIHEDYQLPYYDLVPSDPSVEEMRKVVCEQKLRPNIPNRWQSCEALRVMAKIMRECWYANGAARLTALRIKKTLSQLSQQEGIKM
Method in brief: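 Radiometric flashplate assay: 31.2 nM GST-ALK5 phosphorylating 439 nM GST-SMAD2 with 3 mM ATP plus ³³P-ATP, in HEPES/MgCl2/MnCl2/DTT/BSA buffer pH 7.4, 45 min at 30 °C, 5-10 compound concentrations. EDTA stop, filtration and washing, then radioactivity counted; IC50 derived from the curve.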

Row | IC50 [1] [nM] | IC50 (GST-ALK5) [nM] | SMILES
1 | < 100 | < 100 | CC(=O)N1CCc2cc(-c3cncc(-c4cc(-c5cc(Cl)ccc5F)nc5ncccc45)c3)ccc21 [compound 164, 1-(5-{5-[2-(5-Chloro-2-fluoro-phenyl)-[1,8]naphthyridin-4-yl]-pyridin-3-yl}-2,3-dihydro-indol-1-yl)-ethanone]
2 | < 100 | < 100 | O=C1CCc2cc(-c3cncc(-c4cc(-c5cc(Cl)ccc5F)nc5ncccc45)c3)cnc2N1 [compound 165, 6-{5-[2-(5-Chloro-2-fluoro-phenyl)-[1,8]naphthyridin-4-yl]-pyridin-3-yl}-3,4-dihydro-1H-[1,8]naphthyridin-2-one]
3 | < 100 | < 100 | NCCc1cccc(-c2cncc(-c3cc(-c4cc(Cl)ccc4F)nc4ncccc34)c2)c1 [compound 166, 2-(3-{5-[2-(5-Chloro-2-fluoro-phenyl)-[1,8]naphthyridin-4-yl]-pyridin-3-yl}-phenyl)-ethylamine]
4 | < 100 | < 100 | Nc1ncc(-c2cc(-c3cc(Cl)ccc3F)nc3ncccc23)c2ccncc12 [compound 167, 4-[2-(5-Chloro-2-fluoro-phenyl)-[1,8]naphthyridin-4-yl]-[2,7]naphthyridin-1-ylamine]
5 | 1000 to 10000 | 1000 to 10000 | Fc1ccc(Cl)cc1-c1cc(-c2cncc(-c3cccc4c3CCNC4)c2)c2cccnc2n1 [compound 168, 2-(5-Chloro-2-fluoro-phenyl)-4-[5-(1,2,3,4-tetrahydro-isoquinolin-5-yl)-pyridin-3-yl]-[1,8]naphthyridine]
6 | 100 to 1000 | < 100 | Nc1ccc(-c2cncc(-c3cc(-c4cc(Cl)ccc4F)nc4ncccc34)c2)cn1 [compound 169, 5′-[2-(5-Chloro-2-fluoro-phenyl)-[1,8]naphthyridin-4-yl]-[3,3′]bipyridinyl-6-ylamine]
7 | 100 to 1000 | < 100 | OCCN(CCO)c1cccc(-c2cncc(-c3cc(-c4cc(Cl)ccc4F)nc4ncccc34)c2)n1 [compound 170, 2-[{5′-[2-(5-Chloro-2-fluoro-phenyl)-[1,8]naphthyridin-4-yl]-[2,3′]bipyridinyl-6-yl}-(2-hydroxy-ethyl)amino]-ethanol]
8 | < 100 | < 100 | CN1CCN(c2cncc(-c3cncc(-c4cc(-c5cc(Cl)ccc5F)nc5ncccc45)c3)c2)CC1 [compound 171, 2-(5-Chloro-2-fluoro-phenyl)-4-[5′-(4-methyl-piperazin-1-yl)-[3,3′]bipyridinyl-5 yl]-[1,8]naphthyridine]
9 | < 100 | < 100 | Fc1ccc(Cl)cc1-c1cc(-c2cncc(-c3ccc(CCN4CCCC4)cc3)c2)c2cccnc2n1 [compound 172, 2-(5-Chloro-2-fluoro-phenyl)-4-{5-[4-(2-pyrrolidin-1-yl-ethyl)-phenyl]-pyridin-3-yl}-[1,8]naphthyridine]
10 | < 100 | < 100 | CCN1CCc2ccc(-c3cncc(-c4cc(-c5cc(Cl)ccc5F)nc5ncccc45)c3)cc2C1 [compound 173, 2-(5-Chloro-2-fluoro-phenyl)-4-[5-(2-ethyl-1,2,3,4-tetrahydro-isoquinolin-7-yl)-pyridin-3-yl]-[1,8]naphthyridine]
11 | < 100 | < 100 | CC(C)N1CCC(c2ccc(-c3cncc(-c4cc(-c5cc(Cl)ccc5F)nc5ncccc45)c3)cc2)CC1 [compound 174, 2-(5-Chloro-2-fluoro-phenyl)-4-{5-[4-(1-isopropyl-piperidin-4-yl)-phenyl]-pyridin-3-yl}-[1,8]naphthyridine]
12 | < 100 | < 100 | Fc1ccc(Cl)cc1-c1cc(-c2cncc(-c3ccc4c(c3)CNC4)c2)c2cccnc2n1 [compound 175, 2-(5-Chloro-2-fluoro-phenyl)-4-[5-(2,3-dihydro-1H-isoindol-5-yl)-pyridin-3-yl]-[1,8]naphthyridine]
13 | < 100 | < 100 | CC(C)N1CCc2ccc(-c3cncc(-c4cc(-c5cc(Cl)ccc5F)nc5ncccc45)c3)cc2C1 [compound 176, 2-(5-Chloro-2-fluoro-phenyl)-4-[5-(2-isopropyl-1,2,3,4-tetrahydro-isoquinolin-7-yl)-pyridin-3-yl]-[1,8]naphthyridine]
14 | < 100 | < 100 | CN(C)CCc1ccc(-c2cncc(-c3cc(-c4cc(F)ccc4F)nc4ncccc34)c2)cc1 [compound 177, [2-(4-{5-[2-(2,5-Difluoro-phenyl)-[1,8]naphthyridin-4-yl]-pyridin-3-yl}-phenyl)-ethyl]-dimethyl-amine]
15 | 100 to 1000 | 100 to 1000 | CN(C)CCNC(=O)c1ccc(-c2cncc(-c3cc(-c4cc(Cl)ccc4F)nc4ncccc34)c2)cn1 [compound 178, 5′-[2-(5-Chloro-2-fluoro-phenyl)-[1,8]naphthyridin-4-yl]-[3,3′]bipyridinyl-6-carboxylic acid (2-dimethylamino-ethyl)-amide]
16 | > 10000 | > 10000 | Fc1ccc(Cl)cc1-c1cc(-c2ccc(-c3ccccc3)nc2)c2cccnc2n1 [compound 5599, 2-(5-Chloro-2-fluoro-phenyl)-4-(6-phenyl-pyridin-3-yl)-[1,8]naphthyridine]
